Source: patent US20240109885A1, “2,3-DIHYDRO-1H-PYRROLO[3,2-B]PYRIDINE DERIVATIVE, PREPARATION METHOD THEREFOR, AND APPLICATION THEREOF” (Abbisko Therapeutics Co., Ltd, priority 2020, published 2024)

How the values were obtained:
Type in all cases: cell-based
[1] = target: Ba/F3 EGFR-D770-N771ins_SVD (Homo sapiens, UniProt P00533, DUP768-770, cells depend on it); assay: Cell proliferation assay (CellTiter-Glo), Ba/F3 EGFR-D770-N771ins_SVD cells; conditions: 72 hrs, CTG assay, * = average of multiple measurements, read-out: Ba/F3 EGFR-D770-N771ins_SVD (nM), IC50 of cell proliferation
Experimental: (§1) I. Cell proliferation assay (i) Reagents and consumables • Fetal bovine serum (FBS) (GBICO, Cat #10099-141); • CellTiter-Glo® Luminescent Cell Viability Assay Kit (Promega, Cat #G7572); • Black transparent flat-bottomed 96-well plate (Corning®, Cat #3603).
(§2) • SpectraMax Multi-Label Microplate Detector MD, 2104-0010A; • CO2 incubator, Thermo Scientific 3100 Series; • Biosafety cabinet, Thermo Scientific, 1300 Series type A2; • Inverted microscope, Olympus, CKX41SF; • Siemens refrigerator KK25E76TI. (iii) Cell lines and culture conditions
(§3) (iv) Experimental procedures 1. Cell culture and seeding: • (1) Cells in the logarithmic growth phase were harvested, and counted using a platelet counter. Cell viability was detected by the trypan blue exclusion assay to ensure that the cell viability was above 90%. • (2) The cell concentration was adjusted to achieve the final density; and 90 μL of the cell suspension was added to the 96-well plate. • (3) The cells were incubated in the 96-well plate overnight at 37° C. in the presence of 5% CO2 with 95% humidity. 2. TO benchmark data: • (1) 10 μL of PBS was added to each well of the TO flat plate containing the cells. • (2) The CTG reagent was thawed, and the cell plate was equilibrated to room temperature for 30 min. • (3) An equal volume of CTG solution was added to each well. • (4) The cells were shaken for 5 min on an orbital shaker for lysis. • (5) The cell plate was left at room temperature for 20 min to stabilize luminescent signals. • (6) The values of TO luminescent signals were read. 3. Compound dilution and addition • (1) According to the compound information table, a corresponding volume of DMSO was added to the corresponding compound powder to prepare a 10 mM stock solution. • (2) Compound solutions diluted at 1000 fold and 3.16 fold were prepared. • (3) The compound solution diluted at 1000 fold was diluted at 100 fold with PBS, to prepare the compound solutions at 10 fold in 9 concentrations, with the maximum concentration of […]; and the compound solution was diluted at 3.16 fold. 10 μL of medicament solution was added to each well of the seeded 96-well plate. Three replicate wells were provided for each concentration of the compound, and the final concentration of DMSO was 0.1%. • (4) Cells were placed in the 96-well plate containing the medicament and subsequently cultured for 72 hrs at 37° C. in the presence of 5% CO2 with 95% humidity, and then, CTG assay was conducted. 4. Reading of luminescent signals • (1) The CTG reagent was thawed, and the cell plate was equilibrated to room temperature for 30 min. • (2) An equal volume of CTG solution was added to each well. • (3) The cells were shaken for 5 min on an orbital shaker for lysis.
(§4) (4) The cell plate was left at room temperature for 20 min to stabilize the luminescent signals. • (5) Luminescent values were read. Data processing
(§5) The data were analyzed using software GraphPad Prism 7.0, and fitted by the nonlinear S-curve regression to obtain a dose-effect curve, based on which the IC50 value (unit: nM) was calculated, with the specific test results shown in Table 1.
(§6) Cell viability (%)=(Lum test medicament-Lum culture medium control)/(Lum cell control-Lum culture medium control)×100%.

[2] = target: Ba/F3 EGFR-V769_D770insASV (Homo sapiens, UniProt P00533, DUP767-769, cells depend on it); assay: Cell proliferation assay (CellTiter-Glo), Ba/F3 EGFR-V769_D770insASV cells; conditions: 72 hrs, CTG assay, * = average of multiple measurements, read-out: Ba/F3 EGFR-V769_D770insASV (nM), IC50 of cell proliferation
Experimental: as §1, §2, §3, §4, §5, §6

[3] = system: A431 (EGFR-WT); assay: Cell proliferation assay (CellTiter-Glo), A431 cells; conditions: Homo sapiens, A-431, 72 hrs, CTG assay, * = average of multiple measurements
Experimental: as §1, §2, §3, §4, §5, §6

Chain of Ba/F3 EGFR-V769_D770insASV (P00533 with tags, fused parts or gaps DUP767-769): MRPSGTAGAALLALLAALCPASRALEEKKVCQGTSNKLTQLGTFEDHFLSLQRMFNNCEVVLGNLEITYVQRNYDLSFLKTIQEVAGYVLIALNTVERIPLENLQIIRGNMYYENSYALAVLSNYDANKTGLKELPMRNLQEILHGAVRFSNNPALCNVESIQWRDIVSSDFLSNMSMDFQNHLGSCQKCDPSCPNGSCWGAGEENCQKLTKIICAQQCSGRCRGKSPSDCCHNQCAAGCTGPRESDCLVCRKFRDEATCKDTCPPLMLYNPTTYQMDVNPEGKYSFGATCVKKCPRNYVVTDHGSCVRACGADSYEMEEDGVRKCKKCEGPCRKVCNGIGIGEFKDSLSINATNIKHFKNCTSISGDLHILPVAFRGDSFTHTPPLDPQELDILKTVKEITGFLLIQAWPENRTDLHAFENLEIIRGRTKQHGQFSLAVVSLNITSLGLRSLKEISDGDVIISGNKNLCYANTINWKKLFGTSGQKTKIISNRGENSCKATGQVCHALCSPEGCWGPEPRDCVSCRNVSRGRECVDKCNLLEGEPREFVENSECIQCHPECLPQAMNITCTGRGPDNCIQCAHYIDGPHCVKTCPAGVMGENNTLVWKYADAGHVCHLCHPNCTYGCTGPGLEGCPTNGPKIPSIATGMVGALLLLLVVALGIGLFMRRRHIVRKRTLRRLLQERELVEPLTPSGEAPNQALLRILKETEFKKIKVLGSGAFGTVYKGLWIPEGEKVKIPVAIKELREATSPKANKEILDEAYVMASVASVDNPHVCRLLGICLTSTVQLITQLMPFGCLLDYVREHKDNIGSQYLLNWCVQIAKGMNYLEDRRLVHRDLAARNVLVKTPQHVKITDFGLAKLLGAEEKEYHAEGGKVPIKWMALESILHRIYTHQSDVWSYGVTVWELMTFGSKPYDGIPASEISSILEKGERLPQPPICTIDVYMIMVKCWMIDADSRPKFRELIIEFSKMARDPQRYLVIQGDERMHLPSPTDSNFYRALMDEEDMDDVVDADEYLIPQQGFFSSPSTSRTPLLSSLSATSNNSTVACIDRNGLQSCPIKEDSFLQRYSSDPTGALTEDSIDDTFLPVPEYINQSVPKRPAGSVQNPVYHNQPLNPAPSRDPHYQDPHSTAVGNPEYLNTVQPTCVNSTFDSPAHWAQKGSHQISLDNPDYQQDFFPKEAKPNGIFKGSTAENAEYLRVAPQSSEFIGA
Chain of Ba/F3 EGFR-D770-N771ins_SVD (P00533 with tags, fused parts or gaps DUP768-770): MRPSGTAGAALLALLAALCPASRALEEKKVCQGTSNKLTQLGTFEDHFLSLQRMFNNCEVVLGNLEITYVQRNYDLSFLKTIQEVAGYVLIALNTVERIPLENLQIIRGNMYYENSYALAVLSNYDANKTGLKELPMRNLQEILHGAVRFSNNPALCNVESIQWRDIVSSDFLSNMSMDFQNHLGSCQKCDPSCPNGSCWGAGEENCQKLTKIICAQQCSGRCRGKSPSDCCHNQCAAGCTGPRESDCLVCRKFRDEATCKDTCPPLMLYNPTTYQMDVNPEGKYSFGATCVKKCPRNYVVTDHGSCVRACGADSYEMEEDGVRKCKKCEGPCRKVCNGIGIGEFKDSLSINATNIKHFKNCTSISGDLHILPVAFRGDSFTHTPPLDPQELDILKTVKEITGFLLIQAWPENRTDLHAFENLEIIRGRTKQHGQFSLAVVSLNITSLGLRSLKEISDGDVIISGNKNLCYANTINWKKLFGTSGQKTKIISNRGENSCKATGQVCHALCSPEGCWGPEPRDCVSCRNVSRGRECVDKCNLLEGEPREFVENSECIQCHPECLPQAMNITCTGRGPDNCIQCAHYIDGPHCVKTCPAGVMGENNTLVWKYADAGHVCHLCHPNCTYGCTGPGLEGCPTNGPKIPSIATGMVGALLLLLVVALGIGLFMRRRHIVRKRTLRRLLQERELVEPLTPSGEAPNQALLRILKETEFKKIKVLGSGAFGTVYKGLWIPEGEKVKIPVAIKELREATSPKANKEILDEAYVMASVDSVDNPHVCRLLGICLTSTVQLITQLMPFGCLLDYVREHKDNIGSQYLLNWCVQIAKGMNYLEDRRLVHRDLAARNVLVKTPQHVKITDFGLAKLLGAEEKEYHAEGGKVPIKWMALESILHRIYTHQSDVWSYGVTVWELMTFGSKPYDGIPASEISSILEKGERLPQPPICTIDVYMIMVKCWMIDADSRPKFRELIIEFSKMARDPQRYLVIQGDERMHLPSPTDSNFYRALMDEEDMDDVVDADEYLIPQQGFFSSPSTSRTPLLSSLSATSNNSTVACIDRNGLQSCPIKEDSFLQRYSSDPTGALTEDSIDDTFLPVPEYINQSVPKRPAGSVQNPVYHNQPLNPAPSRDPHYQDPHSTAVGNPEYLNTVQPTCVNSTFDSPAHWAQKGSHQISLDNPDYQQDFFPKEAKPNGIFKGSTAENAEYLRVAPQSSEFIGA

| GI50 [1] [nM] | GI50 [2] [nM] | IC50 [3] [nM] | Compound |
| --- | --- | --- | --- |
| 47.2 | 83.1 | 964 | C=CC(=O)Nc1cc(Nc2cc(N3CC(C)(C)c4ncccc43)ccn2)c(OC)cc1N1CCC[C@@H]1CN(C)C [Example 4, (R)-N-(5-((4-(3,3-dimethyl-2,3-dihydro-1H-pyrrolo[3,2-b]pyridin-1-yl)pyridin-2-yl)amino)-2-(2-((dimethylamino)methyl)pyrrolidin-1-yl)-4-methoxyphenyl)acrylamide] |
| 15.6 | 58.2 | 121 | C=CC(=O)Nc1cc(Nc2ncnc(N3CC(C)(C)c4nc(Cl)ccc43)n2)c(OC)cc1N(C)CCN(C)C [Example 22, N-(5-((4-(5-chloro-3,3-dimethyl-2,3-dihydro-1H-pyrrolo[3,2-b]pyridin-1-yl)-1,3,5-triazin-2-yl)amino)-2-((2-(dimethylamino)ethyl) (methyl)amino)-4-methoxyphenyl) acrylamide] |
| 6.5 | 17.1 | 673 | C#Cc1ccc2c(n1)C(C)(C)CN2c1ccnc(Nc2cc(NC(=O)C=C)c(N(C)CCN(C)C)cc2OC(F)F)n1 [Example 68, N-(4-(difluoromethoxy)-2-((2-(dimethylamino)ethyl)(methyl)ami-no)-5-((4-(5-ethynyl-3,3-dimeth-yl-2,3-dihydro-1H-pyrrolo[3,2-b]pyridin-1-yl)pyrimidin-2-yl)amino)phenyl)acrylamide] |
| 32.9 | 54.2 | 189 | C=CC(=O)Nc1cc(Nc2nccc(N3CC4(CCC4)c4nc(C)ccc43)n2)c(OC)cc1N(C)CCN(C)C [Example 52, N-(2-((2-(dimethylamino)ethyl) (methyl)amino)-4-methoxy-5-((4-(5′-methylspiro[cyclobutane-1,3′-pyrrolo[3,2-b]pyridin]-1′(2′H)-yl)pyrimidin-2-yl)amino)phenyl) acrylamide] |
| 14.6 | 32.1 | 82.4 | C=CC(=O)Nc1cc(Nc2nccc(N3CC(C)(C)c4nc(-c5cnn(C)c5)ccc43)n2)c(OC)cc1N(C)CCN(C)C [Example 50, N-(5-((4-(3,3-dimethyl-5-(1-methyl-1H-pyrazol-4-yl)-2,3-dihydro-1H-pyrrolo[3,2-b]pyridin-1-yl)pyrimidin-2-yl)amino)-2-((2-(dimethylamino)ethyl)(methyl)amino)-4-methoxyphenyl)acrylamide] |
| 26.6 | 31.4 | 411 | C=CC(=O)Nc1cc(Nc2nccc(N3CC(C)(C)c4nc(C)ccc43)n2)c(OC)cc1N(C)CCN(C)C [Example 5, N-(2-((2-(dimethylamino)ethyl) (methyl)amino)-4-methoxy-5-((4-(3,3,5-trimethyl-2,3-dihydro-1H-pyrrolo[3,2-b]pyridin-1-yl)pyrimidin-2-yl)amino)phenyl)acrylamide] |
| 32.7 | 79.7 | 673 | C=CC(=O)Nc1cc(Nc2nccc(N3CC4(CCC4)c4ncccc43)n2)c(OCC(F)(F)F)nc1N(C)CCN(C)C [Example 57, N-(2-((2-(dimethylamino)ethyl) (methyl)amino)-5-((4-(spiro[cyclo-butane-1,3′-pyrrolo[3,2-b]pyridin]-1′(2′H)-yl)pyrimidin-2-yl)amino)-6-(2,2,2-trifluoroethoxy)pyridin-3-yl)acrylamide] |
| 24.8 | 53.7 | 317 | C=CC(=O)Nc1cc(Nc2nccc(N3CC(C)(C)c4nc(C5CC5)ccc43)n2)c(OC)nc1N(C)CCN(C)C [Example 69, N-(5-((4-(5-cyclopropyl-3,3-dimethyl-2,3-dihydro-1H-pyrrolo [3,2-b]pyridin-1-yl)pyrimidin-2-yl)amino)-2-((2-(dimethylamino)ethyl) (methyl)amino)-6-methoxypyridin-3-yl)acrylamide] |
| 22.5 | 68.4 | 47.7 | C=CC(=O)Nc1cc(Nc2ncnc(N3CC(C)(C)c4nc(Cl)c(C)cc43)n2)c(OC)cc1N(C)CCN(C)C [Example 34, N-(5-((4-(5-chloro-3,3,6-trimethyl-2,3-dihydro-1H-pyrrolo[3,2-b]pyridin-1-yl)-1,3,5-triazin-2-yl)amino)-2-((2-(dimethylamino)ethyl) (methyl)amino)-4-methoxyphenyl) acrylamide] |
| 60.2 | 69.8 | 898 | C=CC(=O)Nc1cc(Nc2cc(N3CC(C)(C)c4ncccc43)ccn2)c(OC)cc1N(C)CCN(C)C [Example 1, N-(5-((4-(3,3-dimethyl-2,3-dihydro-1H-pyrrolo[3,2-b]pyridin-1-yl)pyridin-2-yl)amino)-2-((2-(dimethylamino)ethyl)(methyl)amino)-4-methoxyphenyl)acrylamide] |
| 33.9 | 54.6 | 125 | C=CC(=O)Nc1cc(Nc2nccc(N3CC(C)(C)c4nc(C5CC5)ccc43)n2)c(OC)cc1N(C)CCN(C)C [Example 17, N-(5-((4-(5-cyclopropyl-3,3-dimethyl-2,3-dihydro-1H-pyrrolo[3,2-b]pyridin-1-yl)pyrimidin-2-yl)amino)-2-((2-(dimethylamino)ethyl) (methyl)amino)-4-methoxyphenyl) acrylamide] |
| 9.5 | 27.7 | 47.7 | C=CC(=O)Nc1cc(Nc2ncnc(N3CC(C)(C)c4ncc(C)cc43)n2)c(OC)cc1N(C)CCN(C)C [Example 16, N-(2-((2-(dimethylamino)ethyl) (methyl)amino)-4-methoxy-5-((4-(3,3,6-trimethyl-2,3-dihydro-1H-pyrrolo[3,2-b]pyridin-1-yl)-1,3,5-triazin-2-yl)amino)phenyl)acrylamide] |
| 43.8 | 139 | – | C=CC(=O)Nc1cc(Nc2nccc(N3CC(C)(C)c4nc(-n5cncc5C)ccc43)n2)c(OC)cc1N(C)CCN(C)C [Example 59, N-(5-((4-(3,3-dimethyl-5-(5-methyl-1H-imidazole-1-yl)-2,3-dihydro-1H-pyrrolo[3,2-b]pyridin-1-yl)pyrimidin-2-yl)amino)-2-((2-(dimethylamino)ethyl)(methyl)amino)-4-methoxyphenyl)acrylamide] |
| 33.2 | 51.5 | – | C=CC(=O)Nc1cc(Nc2nccc(N3CC4(CCCCC4)c4nc(C)ccc43)n2)c(OC(F)F)cc1N(C)CCN(C)C [Example 36, N-(4-(difluoromethoxy)-2-((2-(dimethylamino)ethyl)(methyl)amino)-5-((4-(5′-methylspiro[cyclohexane-1,3′-pyrrolo[3,2-b]pyridin]-1′(2′H)-yl)pyrimidin-2-yl)amino)phenyl)acrylamide] |
| 40.1 | 94.8 | – | C=CC(=O)Nc1cc(Nc2cc(N3CC(C)(C)c4nc(C)c(C)cc43)ncn2)c(OCC)cc1N(C)CCN(C)C [Example 35, N-(2-((2-(dimethylamino)ethyl) (methyl)amino)-4-ethoxy-5-((6-(3,3,5,6-tetramethyl-2,3-dihydro-1H-pyrrolo[3,2-b]pyridin-1-yl)pyrimidin-4-yl)amino)phenyl)acrylamide] |
| 25.2 | – | 1020 | C=CC(=O)Nc1cc(Nc2nccc(N3CC4(CCCC4)c4nc(C)ccc43)n2)c(OCC(F)(F)F)nc1N(C)CCN(C)C [Example 49, N-(2-((2-(dimethylamino)ethyl) (methyl)amino)-5-((4-(5′-methyl-spiro[cyclopentane-1,3′-pyrrolo[3,2-b]pyridin]-1′(2′H)-yl)pyrimidin-2-yl)amino)-6-(2,2,2-trifluoroethoxy)pyridin-3-yl)acrylamide] |
| 31.5 | 68.8 | – | C=CC(=O)Nc1cc(Nc2nccc(N3CC(C)(C)c4nc(C)c(C)cc43)n2)c(OCC)cc1N(C)CCN(C)C [Example 27] |
